In one data set the test system is HeLa cells. The class given is cell-based. The conditions noted are these: BCN-C10 pretreatment (200 μM, 1 h), complex 40 μM. From the text: The results particularly highlight the potential of the luminogenic transition metal-based polypyridyl complexes of the present invention for bioorthogonal labeling. […] Importantly, although the cellular uptake of complex 2b was substantially higher, it was much less cytotoxic than complex 4b toward the pretreated cells. […] The results also highlight the potential therapeutic use of intracellular bioorthogonal coupling reactions in activating the cytotoxicity of metallo drugs.
For determining the cytotoxicity of complexes 1 b 5b, HeLa cells were seeded in a 96-well flat-bottomed microplate (about 10,000 cells well^−1) in growth medium (100 μL) and incubated at 37° C. under a 5% CO2 atmosphere for 24 h. The cells were then incubated in either blank medium or growth medium/DMSO (99:1, v/v) (100 μL) containing BCN-C10 (200 μM) in the dark at 37° C. under a 5% CO2 atmosphere for 1 h. The medium was then removed, the cell layer was washed with PBS, and further incubated in growth medium/DMSO (99:1, v/v) (100 μL) containing the ruthenium(II) complexes (40 μM) in the dark at 37° C. under a 5% CO2 atmosphere for 6, 12, or 24 h. Wells containing untreated cells were used as blank control. The microplate was incubated at 37° C. under a 5% CO2 atmosphere for another 4 h. The growth medium was then removed, and DMSO (200 μL) was added to each well. The microplate was further incubated for 15 min. The absorbance of the solutions at 570 nm was measured with a SPECTRAmax 340 microplate reader.

The conditions of data set [1]: aerated aqueous solution, λex=455 nm; cited from earlier work.
A short description of data set [2]: SPANC reaction kinetics with BCN—OH by UV/Vis absorption spectroscopy. In kind it is physicochemical. The settings on record: reaction with BCN—OH in MeOH at 298 K. As for the experimental part: The reactivity of the iridium(III) and ruthenium(II) pyridyl complexes toward a strained alkyne derivative BCN—OH in MeOH at 298 K was studied. The second-order rate constants (k2) of the strain-promoted alkyne-nitrone cycloaddition (SPANC) reaction of complexes 1a-5b are shown in Tables 3 and 4, respectively. The k2 values of the iridium(III) complexes 1a, 2a and 3a and the ruthenium(II) complexes 1b, 2b, 3b, 4b, and 5b were determined to be 0.116-0.238 and 0.078-3.06 M^−1 s^−1, respectively, which are about 1.95-76.5 times that of the free ligand bpy-nitrone-Me (k2=0.040 M^−1 s^−1). This is attributed to the electron-withdrawing effects of the positively-charged metal centers. […] The accelerated reaction kinetics is assumed to originate from the presence of the more electron-withdrawing phenyl ring at the N-position of the nitrone moiety. Thus, the accelerated reaction kinetics render complexes 1a-5b highly advantageous bioorthogonal probes for biomolecules modified with a strained alkyne moiety.
More specifically, the SPANC reaction kinetics of complexes 1a 5b was studied by UV/Ms absorption spectroscopy. For the ligand bpy-nitrone-Me and the iridium(III) complexes 1a-3a, the k2 values were measured under pseudo first order conditions with a 25- to 100-fold excess of BCN—OH in MeOH at 298 K. The reaction process was followed by monitoring the exponential decay of the absorbance at 306-342 nm upon addition of BCN—OH. The final concentrations of the nitrone compounds were 10 μM and those of BCN—OH ranged from 0.25 to 1.0 mM. For the ruthenium(II) complexes 1b-5b, the k2 values were determined under pseudo first order conditions with a 50- to 200-fold excess of BCN—OH in MeOH at 298 K. The reaction process was monitored by following the exponential decay of the absorbance at 329 nm. The final concentrations of the complexes were 10 μM and those of BCN—OH ranged from 0.5 to 2.0 mM. The data were fitted to a single-exponential equation to give the observed rate constants (kobs), which were plotted against the concentrations of BCN—OH to obtain the k2 from the slope of the plots.

With `Cc1ccnc(-c2cc(/C=[N+](/C)[O-])ccn2)c1.F[P-](F)(F)(F)(F)F.F[P-](F)(F)(F)(F)F.[Ru+2].c1ccc(-c2ccccn2)nc1.c1ccc(-c2ccccn2)nc1` [Complex 1b, [Ru(bpy)2(bpy-nitrone-Me)](PF6)2], the “Cell viability with BCN-C10 pretreatment” value in the data set on HeLa cells is “maintained good biocompatibility”.

For `[Cl][Ru][Cl].c1ccc(-c2ccccn2)nc1.c1ccc(-c2ccccn2)nc1.c1ccc(-c2ccccn2)nc1` [[Ru(bpy)3]Cl2], in data set [1], the “ϕem of standard solution” value was 0.028.

For the compound `Cc1ccnc(-c2cc(C=[N+](C)[O-])ccn2)c1` [bpy-nitrone-Me, 4-((Methyl(oxido)imino)methyl)-4′-methyl-2,2′-bipyridine], in data set [2], the “Second-order rate constants (k2)” value amounted to 0.040 M⁻¹ s⁻¹.

These data come from patent publication US10759994B2, “Luminogenic transition metal-based pyridyl complex and its use” (City University of Hong Kong, priority 2016, dated 2020).
